In patent US20230310643A1, “EXTRACORPOREAL CLEARING TRAPS BASED ON INVERSE ELECTRON DEMAND DIELS-ALDER CYCLOADDITION FOR (PRE)-TARGETED THERAPY AND DIAGNOSTICS” (RIGSHOSPITALET, priority 2020, published 2023):
Structures can show the parent of a compound that is named as a salt.

Columns and labels:
[1] = tested on: TCO-CC49; assay: Trapping of TCO-CC49 from PBS solution by tetrazine-agarose columns, eluate titrated with [111In]8; conditions: n = 2; for % TE mean ± SD, 2nd evaluation, TCO-CC49: repeated 9 days after first evaluation, columns stored at 4° C.; for % TE mean ± SD, 1st evaluation, TCO-CC49: trapping efficiency, single pass, 100 μg/mL in PBS, 0.5 mL/min
Protocol: (§1) Tetrazine-agarose columns, two for each tetrazine, each prepared from 33 mg of dry NHS-agarose as described above (bed volume approx. 0.25 mL), and a control column prepared from tetrazine-free agarose, were equilibrated with 2-3 bed volumes of PBS. Antibody TCO-CC49 (approx. 1 TCO groups per 20 kDa molecular weight) or polymer TCO-KS254 (approx. 1 TCO group per 5 kDa molecular weight) were dissolved in PBS with to a mass concentration of 100 μg/mL. Aliquots of these solutions (0.4 mL) were pumped through the tetrazine-agarose columns at 0.5 mL/min pumping speed using an infusion pump (AL-1000, World Precision Instruments). When all solution had entered the resin bed, an aliquot of PBS (0.4 mL) was immediately added on top of it and pumped through the column at 0.5 mL/min. Total eluate (total volume approx. 0.8 mL) was collected and the amount of TCO-CC49 or TCO-KS254 was determined by ^111In-tetrazine ([^111In]8) titration.
(§2) For each column, trapping of both TCO-CC49 and TCO-KS254 was tested, and the column was rinsed with 2-3 volumes of PBS between tests. For pairs of columns with the same tetrazine, the order of testing (TCO-CC49 first or TCO-KS254 first) for one column was opposite to the order of testing for another column.
(§3) An aliquot of each trapping column eluate (6 μL) was mixed with an equal volume of 10 μM [111In]8 solution. Resulting mixtures were shaken at 37° C. for at least 1 hour to ensure full consumption of reactive TCO moieties. Then NuPage LDS Sample buffer was added to all mixtures according to the supplier's instructions, samples were heated for 10 min at 70° C. and applied on the NuPAGE 4-12% Bis-Tris SDS-PAGE gels. SDS-PAGE was run in MES-SDS buffer at 150V for 40-45 min. Separation was monitored by running SeeBlue® Plus2 Pre-Stained Protein Standard along with radiolabeled polymer samples. Control mixtures of 6 μL of [^111In]8 solution with 6 μL of PBS and reference mixtures of 6 μL of [^111In]8 solution and 6 μL of 50 μg/mL solutions of TCO-CC49 or TCO-KS254 were prepared and processed in the same manner. Developed gels were exposed against phosphor storage screens (PerkinElmer Multisensitive), which were then read in the Cyclone Plus phosphorimager (Packard Instruments, USA). Autoradiograms were quantified using Optiquant 3.0 software (Packard Instruments). Molecular weight reference ladder from the photo of the same gel aligned and merged to the autoradiogram is shown to the left in FIG. 8. Radioactivity found in the section of the gel corresponding to molecular weights of 60 kDa and above (using SeeBlue standards as reference) was considered polymer-bound or antibody-bound.
(§4) Trapping efficiency (TE) was calculated according to the formula:
(§5) % TE=100%×(1−% BTz/% BnoTz),
(§6) where % BTz is the percentage of polymer/antibody bound ^111In activity in the eluate collected from a column with tetrazine-conjugated agarose, while % BnoTz is the percentage of polymer/antibody bound ^111In activity in the eluate collected from a control column with tetrazine-free agarose.
(§7) For each column, evaluation of trapping efficiency for TCO-CC49 and TCO-KS254 was repeated 9 days after the first evaluation. In between evaluations, the columns were stored at 4° C. in phosphate-buffered saline with 0.1% vol/vol of ProClin™ 150 (Sigma-Aldrich).

[2] = Trapping of TCO-KS254 from PBS solution by tetrazine-agarose columns, eluate titrated with [111In]8; conditions: for Trapping efficiencies of TCO-KS254 polymer compared with resins with shorter or no linker (tetrazines 1, 3 and 5): comparison in words, longer linkers; for % TE mean ± SD, 2nd evaluation, TCO-KS254: repeated 9 days after first evaluation, columns stored at 4° C.; for % TE mean ± SD, 2nd evaluation, TCO-KS254 / % TE mean ± SD, 1st evaluation, TCO-KS254: n = 2; for % TE mean ± SD, 1st evaluation, TCO-KS254: trapping efficiency, single pass, 100 μg/mL in PBS, 0.5 mL/min
Protocol: as §1, §2, §3, §4, §5, §6, §7

[3] = Dissolution of amino-tetrazine in phosphate-buffered saline; type: physicochemical; conditions: PBS, 120 mM NaCl, 10 mM phosphate buffer pH 7.4
Protocol: Amino-tetrazine (1-6) was dissolved in phosphate-buffered saline (PBS, 120 mM NaCl, 10 mM phosphate buffer pH 7.4) to a concentration of 4 mM (tetrazine 5 could only be dissolved to a concentration of 2.7 mM). This solution was added to dry NHS-activated agarose resin (Pierce/Thermo Fisher Scientific) at the ratio of 1 mL solution per 60 mg resin. The resin was shaken in a plastic tube with a filter frit for 2-3 h at room temperature, then tetrazine solution was removed by vacuum filtration, and the resin was washed 3 times with PBS at the same mL-per-mg resin ratio. After that, Tris-HCl buffer (0.5M, pH 7.4) was added to the resin, the resin was shaken for 2-3 h at room temperature or overnight at 4° C. and washed 3 times with PBS. Control resin (tetrazine-free quenched agarose) was prepared in the same way, but pure PBS without amino-tetrazines was used for the initial incubation.

SMILES: NCCOCCOCCOCCOCCOCCOCCOCCOCCOCCOCCOCCNC(=O)CCCC(=O)NCc1ccc(-c2nncnn2)cc1 [Tetrazine 4, 37,41-dioxo-41-((4-(1,2,4,5-Tetrazin-3-l)benzyl)amino)-3,6,9,12,15,18,21,24,27,30,33-undecaoxa-36-azahentetracontan-1-aminium trifluoroacetate]
- % TE mean ± SD, 2nd evaluation, TCO-CC49 [1]: 92 ± 0.4%
- % TE mean ± SD, 1st evaluation, TCO-CC49 [1]: 96 ± 6^ %
- Trapping efficiencies of TCO-KS254 polymer compared with resins with shorter or no linker (tetrazines 1, 3 and 5) [2]: lower trapping efficiencies
- % TE mean ± SD, 2nd evaluation, TCO-KS254 [2]: 56 ± 2%
- % TE mean ± SD, 1st evaluation, TCO-KS254 [2]: 75 ± 0.2%

SMILES: NCCCCCCCC(=O)Nc1ccc(-c2nnc(-c3ccccn3)nn2)nc1.O=C(O)C(F)(F)F [Tetrazine 5, 8-amino—N-(6-(6-(pyridin-2-yl)-1,2,4,5-tetrazin-3-yl)pyridin-3-yl)octanamide 2,2,2-trifluoroacetate]
- % TE mean ± SD, 2nd evaluation, TCO-CC49 [1]: 89 ± 3^ %
- % TE mean ± SD, 1st evaluation, TCO-CC49 [1]: 98 ± 0.4%
- % TE mean ± SD, 2nd evaluation, TCO-KS254 [2]: 67 ± 0.3%
- % TE mean ± SD, 1st evaluation, TCO-KS254 [2]: 85 ± 5%
- Concentration to which the tetrazine could be dissolved [3]: 2700 µM

SMILES: NCCOCCOCCOCCOCCOCCOCCOCCOCCOCCOCCOCCNC(=O)CCCC(=O)Nc1ccc(-c2nnc(-c3ccccn3)nn2)nc1.O=C(O)C(F)(F)F [Tetrazine 6, 37,41-dioxo-41-((6-(6-(pyridin-2-yl)-1,2,4,5-tetrazin-3-yl)pyridin-3-yl)amino)-3,6,9,12,15,18,21,24,27,30,33-undecaoxa-36-azahentetracontan-1-aminium trifluoroacetate]
- % TE mean ± SD, 2nd evaluation, TCO-CC49 [1]: 72 ± 1^ %
- % TE mean ± SD, 1st evaluation, TCO-CC49 [1]: 93 ± 7^ %
- Trapping efficiencies of TCO-KS254 polymer compared with resins with shorter or no linker (tetrazines 1, 3 and 5) [2]: lower trapping efficiencies
- % TE mean ± SD, 2nd evaluation, TCO-KS254 [2]: 50 ± 6%
- % TE mean ± SD, 1st evaluation, TCO-KS254 [2]: 64 ± 0%

SMILES: NCc1ccc(-c2nncnn2)cc1.O=C(O)C(F)(F)F [Tetrazine 3, (4-(1,2,4,5-Tetrazin-3-yl)phenyl)methanaminium trifluoroacetate]
- % TE mean ± SD, 2nd evaluation, TCO-CC49 [1]: 96 ± 0.4%
- % TE mean ± SD, 1st evaluation, TCO-CC49 [1]: 99 ± 1^ %
- % TE mean ± SD, 2nd evaluation, TCO-KS254 [2]: 78 ± 1%
- % TE mean ± SD, 1st evaluation, TCO-KS254 [2]: 93 ± 10%
